In article PMC7605239 (Cell, 2020):
Like-named read-outs stand apart in the source and are kept apart here.

Columns and labels:
[1] = biological target: T1, CR518 (chemotactile receptor 518) (Octopus bimaculoides, UniProt A0A0L8FVQ9); assay: whole-cell patch clamp dose-response; type: cell-based
T1 sequence (A0A0L8FVQ9 21-399): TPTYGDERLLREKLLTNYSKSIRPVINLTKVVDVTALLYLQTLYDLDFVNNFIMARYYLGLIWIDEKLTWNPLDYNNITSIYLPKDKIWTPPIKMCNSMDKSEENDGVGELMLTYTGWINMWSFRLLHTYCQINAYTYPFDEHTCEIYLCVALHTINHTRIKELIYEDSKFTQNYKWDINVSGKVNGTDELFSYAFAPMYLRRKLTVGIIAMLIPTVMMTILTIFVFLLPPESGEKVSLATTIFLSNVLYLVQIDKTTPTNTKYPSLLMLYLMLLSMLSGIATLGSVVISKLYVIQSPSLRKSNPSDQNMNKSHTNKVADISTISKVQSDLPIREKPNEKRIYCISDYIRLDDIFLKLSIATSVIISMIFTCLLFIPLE

[2] = biological target: T1, CR518 (chemotactile receptor 518); assay: whole-cell patch clamp dose-response; type: cell-based; remark: listed apart in the source
[3] = test system: CR840 (chemotactile receptor 840); assay: whole-cell patch clamp dose-response; type: cell-based, Octopus bimaculoides
[4] = biological target: T1, CR518 (chemotactile receptor 518); assay: whole-cell patch clamp screen; type: cell-based

Work on `C=C1CCC[C@]2(C)Cc3occ(C)c3C[C@@H]12` [atractylon] yielded an EC50 [1] of 29.4 µM.
Compound `Cc1ccc(C(C)C)cc1O` [carvacrol] has an EC50 [2] of 204 µM.
In the case of `CCN(CC)CCCC(C)Nc1ccnc2cc(Cl)ccc12` (stereo not drawn) [chloroquine], the EC50 [3] is reported as 10.3 µM and the EC50 [1] is reported as 92.3 µM.
`C=C(C)[C@@H]1CCC2=CC(=O)C[C@@H](C)[C@]2(C)C1` [nootkatone] showed an EC50 [2] of 24.7 µM.
With `CC1(C)CCC[C@]2(C)[C@@H](C=O)C(C=O)=CC[C@@H]12` [polygodial] the “whole-cell patch clamp screen (1 mM)” value [4] was “CR518 was potently activated by terpenoids, including the physiologically-relevant sesquiterpene polygodial and furanosesquiterpene atractylon”.
